Laboratory results: patent publication US20090099158A1, “TETRAHYDROISOQUINOLINE COMPOUNDS AS MODULATORS OF THE HISTAMINE H3 RECEPTOR” (priority 2007, published 2009)

Target: T1, cloned human H3 receptors (Homo sapiens, UniProt Q9Y5N1)
T1 construct: expressed in transfected cells; host or cells: SK-N-MC cells
Test: H3 Receptor Binding (Human)
Conditions: cloned human H3 receptors stably expressed in SK-N-MC cells; average of the results obtained
Experimental: Binding of compounds to the cloned human H3 receptors, stably expressed in SK-N-MC cells, was performed as described by Barbier, A. J. et al. (Br. J. Pharmacol. 2004, 143(5), 649-661). Data for compounds tested in this assay are presented in Table 1 as an average of the results obtained.

T1 sequence (Q9Y5N1 whole entry): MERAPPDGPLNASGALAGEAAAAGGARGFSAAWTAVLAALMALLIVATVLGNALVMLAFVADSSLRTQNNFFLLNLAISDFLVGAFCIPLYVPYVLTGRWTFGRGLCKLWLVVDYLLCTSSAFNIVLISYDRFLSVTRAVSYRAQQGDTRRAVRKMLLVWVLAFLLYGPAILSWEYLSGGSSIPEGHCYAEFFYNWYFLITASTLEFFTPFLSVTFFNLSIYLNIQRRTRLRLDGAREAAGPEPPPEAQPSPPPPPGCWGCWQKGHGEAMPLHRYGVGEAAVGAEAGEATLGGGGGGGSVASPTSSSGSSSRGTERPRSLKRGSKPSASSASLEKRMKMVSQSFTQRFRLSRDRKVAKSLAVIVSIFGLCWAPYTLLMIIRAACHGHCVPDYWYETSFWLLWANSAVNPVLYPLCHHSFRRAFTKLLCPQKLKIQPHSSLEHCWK

| Ki | Structure (SMILES) |
| --- | --- |
| 169 nM | COc1cccc(C(=O)N2CCc3cc(C(=O)N4CCN(C5CCCCC5)CC4)ccc3C2)c1 [Example 79, (4-Cyclohexyl-piperazin-1-yl)-[2-(3-methoxy-benzoyl)-1,2,3,4-tetrahydro-isoquinolin-6-yl]-methanone] |
| 70 nM | N#Cc1cccc(C(=O)N2CCc3cc(C(=O)N4CCN(C5CCCCC5)CC4)ccc3C2)c1 [Example 80] |
| 65 nM | N#Cc1ccc(C(=O)N2CCc3cc(C(=O)N4CCN(C5CCCCC5)CC4)ccc3C2)cc1 [Example 81, 4-[6-(4-Cyclohexyl-piperazine-1-carbonyl)-3,4-dihydro-1H-isoquinoline-2-carbonyl]-benzonitrile] |
| 55 nM | Cc1ccccc1C(=O)N1CCc2cc(C(=O)N3CCN(C4CCCCC4)CC3)ccc2C1 [Example 82, (4-Cyclohexyl-piperazin-1-yl)-[2-(2-methyl-benzoyl)-1,2,3,4-tetrahydro-isoquinolin-6-yl]-methanone] |
| 257 nM | Cc1ccc(C(=O)N2CCc3cc(C(=O)N4CCN(C5CCCCC5)CC4)ccc3C2)cc1 [Example 83, (4-Cyclohexyl-piperazin-1-yl)-[2-(4-methyl-benzoyl)-1,2,3,4-tetrahydro-isoquinolin-6-yl]-methanone] |
| 180 nM | CC(C)(C)c1ccc(C(=O)N2CCc3cc(C(=O)N4CCN(C5CCCCC5)CC4)ccc3C2)cc1 [Example 84, [2-(4-tert-Butyl-benzoyl)-1,2,3,4-tetrahydro-isoquinolin-6-yl]-(4-cyclohexyl-piperazin-1-yl)-methanone] |
| 118 nM | O=C(c1ccc2c(c1)CCN(C(=O)c1ccccc1)C2)N1CCN(C2CCCCC2)CC1 [Example 85, (2-Benzoyl-1,2,3,4-tetrahydro-isoquinolin-6-yl)-(4-cyclohexyl-piperazin-1-yl)-methanone] |
| 27 nM | O=C(c1ccc2c(c1)CCN(C(=O)c1ccccc1F)C2)N1CCN2CCCCC2C1 (stereo not drawn) [Example 86, [2-(2-Fluoro-benzoyl)-1,2,3,4-tetrahydro-isoquinolin-6-yl]-(octahydro-pyrido[1,2-a]pyrazin-2-yl)-methanone] |
| 23 nM | O=C(c1cccc(F)c1)N1CCc2cc(C(=O)N3CCN4CCCCC4C3)ccc2C1 (stereo not drawn) [Example 87, [2-(3-Fluoro-benzoyl)-1,2,3,4-tetrahydro-isoquinolin-6-yl]-(octahydro-pyrido[1,2-a]pyrazin-2-yl)-methanone] |
| 24 nM | O=C(c1ccc(F)cc1)N1CCc2cc(C(=O)N3CCN4CCCCC4C3)ccc2C1 (stereo not drawn) [Example 88, [2-(4-Fluoro-benzoyl)-1,2,3,4-tetrahydro-isoquinolin-6-yl]-(octahydro-pyrido[1,2-a]pyrazin-2-yl)-methanone] |
| 21 nM | O=C(c1ccc2c(c1)CCN(C(=O)c1ccccc1Cl)C2)N1CCN2CCCCC2C1 (stereo not drawn) [Example 89, [2-(2-Chloro-benzoyl)-1,2,3,4-tetrahydro-isoquinolin-6-yl]-(octahydro-pyrido[1,2-a]pyrazin-2-yl)-methanone] |
| 19 nM | O=C(c1cccc(Cl)c1)N1CCc2cc(C(=O)N3CCN4CCCCC4C3)ccc2C1 (stereo not drawn) [Example 90, [2-(3-Chloro-benzoyl)-1,2,3,4-tetrahydro-isoquinolin-6-yl]-(octahydro-pyrido[1,2-a]pyrazin-2-yl)-methanone] |
| 25 nM | O=C(c1ccc(Cl)cc1)N1CCc2cc(C(=O)N3CCN4CCCCC4C3)ccc2C1 (stereo not drawn) [Example 91, [2-(4-Chloro-benzoyl)-1,2,3,4-tetrahydro-isoquinolin-6-yl]-(octahydro-pyrido[1,2-a]pyrazin-2-yl)-methanone] |
| 23 nM | COc1ccccc1C(=O)N1CCc2cc(C(=O)N3CCN4CCCCC4C3)ccc2C1 (stereo not drawn) [Example 92, [2-(2-Methoxy-benzoyl)-1,2,3,4-tetrahydro-isoquinolin-6-yl]-(octahydro-pyrido[1,2-a]pyrazin-2-yl)-methanone] |
| 17 nM | COc1cccc(C(=O)N2CCc3cc(C(=O)N4CCN5CCCCC5C4)ccc3C2)c1 (stereo not drawn) [Example 93, [2-(3-Methoxy-benzoyl)-1,2,3,4-tetrahydro-isoquinolin-6-yl]-(octahydro-pyrido[1,2-a]pyrazin-2-yl)-methanone] |
| 22 nM | N#Cc1cccc(C(=O)N2CCc3cc(C(=O)N4CCN5CCCCC5C4)ccc3C2)c1 (stereo not drawn) [Example 94, 3-[6-(Octahydro-pyrido[1,2-a]pyrazine-2-carbonyl)-3,4-dihydro-1H-isoquinoline-2-carbonyl]-benzonitrile] |
| 16 nM | N#Cc1ccc(C(=O)N2CCc3cc(C(=O)N4CCN5CCCCC5C4)ccc3C2)cc1 (stereo not drawn) [Example 95, 4-[6-(Octahydro-pyrido[1,2-a]pyrazine-2-carbonyl)-3,4-dihydro-1H-isoquinoline-2-carbonyl]-benzonitrile] |
| 15 nM | Cc1ccccc1C(=O)N1CCc2cc(C(=O)N3CCN4CCCCC4C3)ccc2C1 (stereo not drawn) [Example 96, [2-(2-Methyl-benzoyl)-1,2,3,4-tetrahydro-isoquinolin-6-yl]-(octahydro-pyrido[1,2-a]pyrazin-2-yl)-methanone] |

| Ki | Structure (SMILES) |
| --- | --- |
| 38 nM | Cc1ccc(C(=O)N2CCc3cc(C(=O)N4CCN5CCCCC5C4)ccc3C2)cc1 (stereo not drawn) [Example 97, [2-(4-Methyl-benzoyl)-1,2,3,4-tetrahydro-isoquinolin-6-yl]-(octahydro-pyrido[1,2-a]pyrazin-2-yl)-methanone] |
| 38 nM | CC(C)(C)c1ccc(C(=O)N2CCc3cc(C(=O)N4CCN5CCCCC5C4)ccc3C2)cc1 (stereo not drawn) [Example 98, [2-(4-tert-Butyl-benzoyl)-1,2,3,4-tetrahydro-isoquinolin-6-yl]-(octahydro-pyrido[1,2-a]pyrazin-2-yl)-methanone] |
| 20 nM | O=C(c1ccccc1)N1CCc2cc(C(=O)N3CCN4CCCCC4C3)ccc2C1 (stereo not drawn) [Example 99, (2-Benzoyl-1,2,3,4-tetrahydro-isoquinolin-6-yl)-(octahydro-pyrido[1,2-a]pyrazin-2-yl)-methanone] |
| 35 nM | CCS(=O)(=O)N1CCc2cc(C(=O)N3CCN(C4CCC4)CC3)ccc2C1 [Example 100, (4-Cyclobutyl-piperazin-1-yl)-(2-ethanesulfonyl-1,2,3,4-tetrahydro-isoquinolin-6-yl)-methanone] |
| 34 nM | CCCS(=O)(=O)N1CCc2cc(C(=O)N3CCN(C4CCC4)CC3)ccc2C1 [Example 101, (4-Cyclobutyl-piperazin-1-yl)-[2-(propane-1-sulfonyl)-1,2,3,4-tetrahydro-isoquinolin-6-yl]-methanone] |
| 25 nM | CC(C)S(=O)(=O)N1CCc2cc(C(=O)N3CCN(C4CCC4)CC3)ccc2C1 [Example 102, (4-Cyclobutyl-piperazin-1-yl)-[2-(propane-2-sulfonyl)-1,2,3,4-tetrahydro-isoquinolin-6-yl]-methanone] |
| 22 nM | O=C(c1ccc2c(c1)CCN(S(=O)(=O)c1ccccc1)C2)N1CCN(C2CCC2)CC1 [Example 103, (2-Benzenesulfonyl-1,2,3,4-tetrahydro-isoquinolin-6-yl)-(4-cyclobutyl-piperazin-1-yl)-methanone] |
| 16 nM | O=C(c1ccc2c(c1)CCN(S(=O)(=O)c1ccc(F)cc1)C2)N1CCN(C2CCC2)CC1 [Example 104, (4-Cyclobutyl-piperazin-1-yl)-[2-(4-fluoro-benzenesulfonyl)-1,2,3,4-tetrahydro-isoquinolin-6-yl]-methanone] |
| 16 nM | O=C(c1ccc2c(c1)CCN(C(=O)c1ccc(Cl)cc1)C2)N1CCN(C2CCC2)CC1 [Example 105, [2-(4-Chloro-benzoyl)-1,2,3,4-tetrahydro-isoquinolin-6-yl]-(4-cyclobutyl-piperazin-1-yl)-methanone] |
| 17 nM | CC(C)N1CCN(C(=O)c2ccc3c(c2)CCN(C(=O)c2ccsc2)C3)CC1 [Example 106, (4-Isopropyl-piperazin-1-yl)-[2-(thiophene-3-carbonyl)-1,2,34-tetrahydro-isoquinolin-6-yl]-methanone] |
| 34 nM | CC(C)N1CCN(C(=O)c2ccc3c(c2)CCN(C(=O)c2ccc(O)cc2)C3)CC1 [Example 107, [2-(4-Hydroxy-benzoyl)-1,2,3,4-tetrahydro-isoquinolin-6-yl]-(4-isopropyl-piperazin-1-yl)-methanone] |
| 28 nM | COc1ccc(C(=O)N2CCc3cc(C(=O)N4CCN(C(C)C)CC4)ccc3C2)cc1 [Example 108, (4-Isopropyl-piperazin-1-yl)-[2-(4-methoxy-benzoyl)-1,2,3,4-tetrahydro-isoquinolin-6-yl]-methanone] |
| 37 nM | Cc1ccc(C(=O)N2CCc3cc(C(=O)N4CCN(C(C)C)CC4)ccc3C2)cc1 [Example 109, (4-Isopropyl-piperazin-1-yl)-[2-(4-methyl-benzoyl)-1,2,3,4-tetrahydro-isoquinolin-6-yl]-methanone] |
| 47 nM | CC(C)N1CCN(C(=O)c2ccc3c(c2)CCN(C(=O)c2ccc(Cl)cc2)C3)CC1 [Example 110, [2-(4-Chloro-benzoyl)-1,2,3,4-tetrahydro-isoquinolin-6-yl]-(4-isopropyl-piperazin-1-yl)-methanone] |
| 24 nM | CC(C)N1CCN(C(=O)c2ccc3c(c2)CCN(C(=O)c2ccc(Cl)c(Cl)c2)C3)CC1 [Example 111, [2-(3,4-Dichloro-benzoyl)-1,2,3,4-tetrahydro-isoquinolin-6-yl]-(4-isopropyl-piperazin-1-yl)-methanone] |
| 20 nM | COc1ccc(C(=O)N2CCc3cc(C(=O)N4CCN(C5CCC5)CC4)ccc3C2)cc1 [Example 112, (4-Cyclobutyl-piperazin-1-yl)-[2-(4-methoxy-benzoyl)-1,2,3,4-tetrahydro-isoquinolin-6-yl]-methanone] |
| 22 nM | Cc1ccc(C(=O)N2CCc3cc(C(=O)N4CCN(C5CCC5)CC4)ccc3C2)cc1 [Example 113, (4-Cyclobutyl-piperazin-1-yl)-[2-(4-methyl-benzoyl)-1,2,3,4-tetrahydro-isoquinolin-6-yl]-methanone] |
| 13 nM | O=C(c1ccc2c(c1)CCN(C(=O)c1ccc(Cl)c(Cl)c1)C2)N1CCN(C2CCC2)CC1 [Example 114, (4-Cyclobutyl-piperazin-1-yl)-[2-(3,4-dichloro-benzoyl)-1,2,3,4-tetrahydro-isoquinolin-6-yl]-methanone] |
